The values that follow come from patent publication US20110313015A1, “Fludioxonil Derivatives” (Bayer CropScience AG, priority 2010, published 2011).

The subject of this test is common bent (Agrostis capillaris). Nature of the test: Herbicidal early post-emergence action (microtitre plate, visual assessment of damage). The note with it: application rate 1900 g/ha, assessed after 10 days vs untreated controls, 100% = plants have died, 0% = like control plants. The class given is in vivo. As to the method:
Seeds of mono- and dicotyledonous harmful plants are, in a microtitre plate, placed into sand. The compounds according to the invention, formulated as emulsion concentrates (EC), are then applied as an aqueous emulsion using spray nozzles adapted to the uHTVS to the germinated plants. After the treatment, the microtitre plates are placed in a climatized chamber and kept under good growth conditions for the test plants. The visual assessment of the damage to the test plants is carried out after a trial period of 10 days by comparison with untreated controls (herbicidal activity in percent (%): 100% activity=the plants have died, 0% activity=like control plants).

Consider `COC(=O)CCn1cc(C#N)c(-c2cccc3c2OC(F)(F)O3)c1` [No. 1], for which the herbicidal activity worked out at 100%.
